Experimental findings from PubChem BioAssay (NCI) are described below.

Where “and” joins values, the source holds several entries; their conditions need not be identical. Equal entries are not always repeated.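 Test compounds were applied to cells in 96-well plates for 48 hours at 5 doses. Here, GI50 denotes the concentration required for 50% inhibition of growth. TGI: concentration producing complete growth inhibition.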

Among the test systems are UACC-62 melanoma; K-562 leukemia; HCC-2998 colon; ACHN renal; KM12 colon; UO-31 renal; HCT-15 colon; BT-549 breast; SK-MEL-5 melanoma; SF-295 CNS.
What all share (assay): NCI tumour cell line growth inhibition, 48 h

For the compound `Cn1cc(-c2cc3c(Nc4ccc(CC(=O)Nc5cc(C(C)(C)C)on5)cc4)ncnc3[nH]2)cn1`, the GI50 in the assay on UACC-62 melanoma was 0.583 µM and 0.455 µM; in the assay with K-562 leukemia, 1.21 µM and 0.596 µM; with HCC-2998 colon, 1.34 µM and 0.652 µM; with ACHN renal, 1.94 µM and 1.71 µM; in the assay with KM12 colon it was 0.0596 µM and 0.0468 µM; in the assay with UO-31 renal, 2.43 µM and 2.33 µM. In addition, the GI50 with HCT-15 colon was 3.26 µM and 2.91 µM; in the assay with BT-549 breast, 0.925 µM and 0.538 µM; in the assay with SK-MEL-5 melanoma, 1.4 µM and 1.31 µM; in the assay with SF-295 CNS it was 1.64 µM and 1.32 µM. Also, the TGI in the assay with UACC-62 melanoma is 1.71 µM and 1.9 µM; in the assay with K-562 leukemia, > 100 µM and 11.2 µM; with HCC-2998 colon it was 7.5 µM and 4.82 µM; in the assay on ACHN renal, 7.36 µM and 6.4 µM; in the assay on KM12 colon, 2.39 µM and 1.82 µM; in the assay with UO-31 renal it was 7.04 µM and 6.58 µM. For the same compound, the TGI in the assay on HCT-15 colon was 13.8 µM and 10.3 µM; in the assay with BT-549 breast it was 4.12 µM and 3.35 µM; in the assay on SK-MEL-5 melanoma, 4.77 µM and 4.43 µM; in the assay with SF-295 CNS, 6.21 µM and 6.2 µM.

For `COc1ccc(C(CC(=O)c2ccccc2)C(C(=O)c2ccccc2)C(c2ccc(OC)cc2)C2C(=O)NC(=O)NC2=O)cc1` (configuration not stated), the GI50 was 16.2 µM in the assay on UACC-62 melanoma; 39.1 µM in the assay with K-562 leukemia; 6.83 µM in the assay on HCC-2998 colon; 17.9 µM in the assay on ACHN renal; 19.1 µM in the assay with KM12 colon; 13.5 µM in the assay on UO-31 renal. The GI50 is 21.9 µM with HCT-15 colon, 21.9 µM in the assay with BT-549 breast, 12.5 µM with SK-MEL-5 melanoma and 23.2 µM with SF-295 CNS. Also, the TGI with UACC-62 melanoma was 48.9 µM; in the assay on K-562 leukemia, above 100 µM; in the assay with HCC-2998 colon, 28.5 µM; in the assay on ACHN renal it was above 100 µM; in the assay with KM12 colon it was above 100 µM; in the assay with UO-31 renal, 47.7 µM. For the same compound, the TGI with HCT-15 colon is above 100 µM; in the assay on BT-549 breast, 92.8 µM; in the assay on SK-MEL-5 melanoma it was 31.8 µM; in the assay on SF-295 CNS, above 100 µM.

Regarding `OCC1SC(n2cnc3cncnc32)C(O)C1O` (configuration not stated), the GI50 with UACC-62 melanoma, in the assay on K-562 leukemia, in the assay with HCC-2998 colon, in the assay on ACHN renal, with KM12 colon and with UO-31 renal was above 100 µM throughout. The GI50 in the assay with HCT-15 colon, with BT-549 breast, in the assay with SK-MEL-5 melanoma and in the assay with SF-295 CNS was above 100 µM in each case. Further, the TGI with UACC-62 melanoma, with K-562 leukemia, in the assay on HCC-2998 colon, with ACHN renal, in the assay on KM12 colon and in the assay with UO-31 renal was above 100 µM throughout. The TGI in the assay with HCT-15 colon, in the assay with BT-549 breast, with SK-MEL-5 melanoma and in the assay on SF-295 CNS was above 100 µM in each case.

As to `O=S(=O)(Nc1ccc(-c2nc(-c3cccc(OCCN4CCOCC4)c3)c(-c3ccnc(Br)c3)[nH]2)cc1)c1ccccc1`, the GI50 was 2.66 µM in the assay on UACC-62 melanoma; 2.32 µM with K-562 leukemia; 1.85 µM with HCC-2998 colon; 2.99 µM in the assay on ACHN renal; 3.21 µM with KM12 colon; 2.92 µM in the assay with UO-31 renal. In addition, the GI50 is 1.74 µM in the assay on HCT-15 colon, 3.02 µM with BT-549 breast, 2.12 µM in the assay on SK-MEL-5 melanoma and 1.72 µM in the assay with SF-295 CNS. Moreover, the TGI is 12.1 µM in the assay on UACC-62 melanoma; above 100 µM with K-562 leukemia; 3.71 µM in the assay with HCC-2998 colon; above 100 µM in the assay with ACHN renal; above 100 µM in the assay on KM12 colon; above 100 µM in the assay on UO-31 renal. Also, the TGI in the assay with HCT-15 colon is 6.79 µM; in the assay with BT-549 breast, above 100 µM; with SK-MEL-5 melanoma it was 4.6 µM; with SF-295 CNS, 4.1 µM.

Take `OCCN1CCN(CCCN2c3ccccc3Sc3ccc(C(F)(F)F)cc32)CC1`: the GI50 is 0.824 µM and 2.48 µM and 2.08 µM in the assay with UACC-62 melanoma; 1.27 µM and 3.18 µM and 2.05 µM with K-562 leukemia; 0.824 µM and 2.75 µM and 1.97 µM in the assay with HCC-2998 colon; 3.61 µM and 11.7 µM and 10.2 µM with ACHN renal; 2.35 µM and 8.95 µM with KM12 colon; 1.96 µM and 6.09 µM and 4.53 µM in the assay with UO-31 renal. The GI50 in the assay with HCT-15 colon was 1.97 µM and 4.22 µM and 3.7 µM; in the assay with BT-549 breast, 5.65 µM and 2.92 µM and 3.29 µM; in the assay with SK-MEL-5 melanoma, 0.764 µM and 3.02 µM and 1.98 µM; in the assay with SF-295 CNS it was 1.02 µM and 4.73 µM and 2.41 µM. In addition, the TGI in the assay on UACC-62 melanoma was 1.62 µM and 6.83 µM and 4.44 µM; with K-562 leukemia, 2.83 µM and 10.7 µM and 4.73 µM; in the assay on HCC-2998 colon it was 1.6 µM and 7.99 µM and 4.21 µM; in the assay on ACHN renal, 10.2 µM and 25.6 µM and 22.6 µM; in the assay with KM12 colon, 8.01 µM and 21.6 µM; in the assay with UO-31 renal, 8.84 µM and 21.2 µM and 20 µM. Further, the TGI with HCT-15 colon was 6.88 µM and 18.3 µM and 15 µM; in the assay with BT-549 breast it was 12.1 µM and 17.7 µM and 9.5 µM; in the assay with SK-MEL-5 melanoma, 1.43 µM and 11 µM and 4.8 µM; in the assay with SF-295 CNS, 2.7 µM and 19.2 µM and 6.19 µM.

Regarding `Cc1c(Cl)cccc1NC(=O)CC1Sc2ccccc2NC1=O` (configuration not stated), the GI50 was 15.2 µM and 38.6 µM in the assay on UACC-62 melanoma; 8.53 µM and 41.9 µM in the assay with HCT-15 colon. Besides, the TGI is 77.5 µM and > 100 µM in the assay with UACC-62 melanoma; 99.7 µM and > 100 µM in the assay with K-562 leukemia; 52.7 µM and 34.9 µM with HCC-2998 colon; 63.6 µM and 69.8 µM with ACHN renal; > 91.6 µM and 45.9 µM in the assay with KM12 colon; 49.2 µM and 54.8 µM in the assay with UO-31 renal. Moreover, the TGI is above 100 µM with HCT-15 colon; above 100 µM in the assay on BT-549 breast; 67.7 µM and > 100 µM in the assay with SK-MEL-5 melanoma; 58.9 µM and > 100 µM in the assay with SF-295 CNS.

`COc1ccc2c(c1)O/C(=C\c1cccc(OCC(=O)Nc3nc4ccccc4s3)c1)C2=O`: the GI50 with UACC-62 melanoma is 23.5 µM; with K-562 leukemia it was 6.07 µM; with HCC-2998 colon, above 100 µM; with ACHN renal, 12.7 µM; with KM12 colon, 9.61 µM; with UO-31 renal, 1.53 µM. Moreover, the GI50 is 13.9 µM with HCT-15 colon, 26 µM in the assay on BT-549 breast, above 51.5 µM in the assay on SK-MEL-5 melanoma and 11.4 µM with SF-295 CNS. For the same compound, the TGI was above 100 µM in the assay on UACC-62 melanoma; above 100 µM in the assay on K-562 leukemia; above 100 µM with HCC-2998 colon; above 100 µM in the assay with ACHN renal; above 100 µM with KM12 colon; 3 µM in the assay on UO-31 renal. In addition, the TGI with HCT-15 colon is above 100 µM; in the assay with BT-549 breast it was 97.6 µM; in the assay with SK-MEL-5 melanoma it was above 100 µM; in the assay with SF-295 CNS, above 71.7 µM.

Consider `COC1=CC(c2ccc[nH]2)=N/C1=C\c1[nH]c(C)c(C(=O)CCC(=O)Oc2ccc3c(c2)CCC2C3CC[C@]3(C)C(=O)CC[C@@H]23)c1C` (some centres not stated), for which the GI50 in the assay on UACC-62 melanoma is 3.71 µM; in the assay on K-562 leukemia, 4.22 µM; in the assay with HCC-2998 colon, 16.8 µM; in the assay with ACHN renal, 5.82 µM; with KM12 colon, 5.6 µM; in the assay on UO-31 renal it was 3.95 µM. Further, the GI50 with HCT-15 colon is 2.52 µM; in the assay on BT-549 breast it was 15.5 µM; with SK-MEL-5 melanoma it was 3.48 µM; in the assay with SF-295 CNS, 21.4 µM. Further, the TGI is 17.9 µM in the assay on UACC-62 melanoma; above 100 µM with K-562 leukemia; above 96.1 µM in the assay on HCC-2998 colon; above 100 µM in the assay on ACHN renal; above 100 µM with KM12 colon; 30 µM in the assay with UO-31 renal. Moreover, the TGI in the assay on HCT-15 colon is above 61.8 µM; in the assay on BT-549 breast it was above 100 µM; in the assay on SK-MEL-5 melanoma, 19.6 µM; in the assay with SF-295 CNS, 85.3 µM.
